Read-outs that look alike come from different tables or passages of the source.
Columns and labels:
[1] = target: T1, plasma protein (HSA column) (Homo sapiens, UniProt P02768); test: Plasma protein binding estimated by HPLC on a […] HSA column; assay type: in vitro ADME; settings: CHIRALPAK HSA column (50 × 3 mm, 5 μm), estimated by an HPLC-based method, read-out: PPB (plasma protein binding) (converted)
T1 construct: purchased
Method: Plasma protein binding (% PPB) was estimated by correlating the logarithmic retention times of the analytes on a […] HSA 50 × 3 mm, 5 μm column with the literature-known % PPB values (converted into log K values) of the following drugs: warfarin, ketoprofen, budesonide, nizatidine, indomethacin, acetylsalicylic acid, carbamazepine, piroxicam, nicardipine, and cimetidine (for details, see Valko et al.).[67] The samples were dissolved in MeCN/DMSO 9:1 to achieve a final concentration of 0.5 mg/mL. Mobile phase A was 50 mM ammonium acetate adjusted to pH 7.4 with ammonia solution, while mobile phase B was iPrOH. The flow rate was set to 1.0 mL/min, the UV detector was set to 254 nm, and the column temperature was kept at 30 °C. After injecting 2 μL of the sample, a linear gradient from 100% A to 30% iPrOH in 5.4 min was applied. From 5.4 to 18 min, 30% iPrOH was kept, followed by switching back to 100% A in 1.0 min and a re-equilibration time of 6 min. With the aid of the calibration line (R^2 = 0.96), the log K values of new substances were calculated and converted to their % PPB values.

[2] = Log D7.4 measurement by chromatographic (fast-gradient HPLC) method; settings: for chromatographic logD: pH 7.4
Method: The system was calibrated by plotting the retention times of six different drugs (atenolol, metoprolol, labetalol, diltiazem, triphenylene, and permethrin) versus their literature-known log D7.4 in a calibration line (R^2 = 0.99). Subsequently, the mean retention times of the analytes were taken to calculate their log D7.4 values with the aid of the calibration line. At least two independent measurements of each analyte were performed.

XIAP = XIAP (Homo sapiens, UniProt P98170); test: Immunoblotting (western blot) quantification of XIAP levels in MM.1S cells; settings: for remaining activity at 0.1 µM: MM1.S, 16 h
Method: (§1) To evaluate the capability of our panel of hetero-PROTACs for E3 ligase degradation, VHL19, VHL30, CRBN, cIAP1, cIAP2, and XIAP levels were quantified by western blot analyses. […] SDS-PAGE was performed, and proteins were then transferred onto PVDF membranes. Blotted membranes were blocked with 5% milk in Tris-buffered saline/Tween20 (TBST). Primary antibodies were diluted in 5% BSA in TBST, and incubations were performed overnight at 4 °C. Secondary HRP-conjugated antibodies diluted in 5% milk were incubated for 1 h at room temperature. Detection of proteins on PVDF was carried out using the WesternBright ECL HRP substrate or the WesternBright Sirius HRP substrate (Advansta, San Jose, USA) and imaged with LAS 4000× (Fujifilm). Membranes were subjected to 10 min incubation with Restore Western Blot Stripping Buffer (Thermo Fisher Scientific, Waltham, USA), followed by TBST washes. After brief re-activation with methanol, the membranes were blocked, and further probing of proteins was carried out.
(§2) Quantification of blots was performed using ImageJ software (National Institutes of Health).

cIAP1 = cIAP1 (Homo sapiens, UniProt Q13490); test: Immunoblotting (western blot) quantification of cIAP1 levels in MM.1S cells; settings: for remaining activity at 0.1 µM: MM1.S, 16 h
cIAP2 = cIAP2 (Homo sapiens, UniProt Q13489); test: Immunoblotting (western blot) quantification of cIAP2 levels in MM.1S cells; settings: for remaining activity at 0.1 µM: MM1.S
VHL30 = VHL30 (Homo sapiens, UniProt P40337); test: Immunoblotting (western blot) quantification of VHL30 levels in MM.1S cells; settings: MM1.S, 16 h, read-out: %remaining protein VHL30
Method: as §1, §2

CRBN = CRBN (Homo sapiens, UniProt Q96SW2); test: Immunoblotting (western blot) quantification of CRBN levels in MM.1S cells; settings: for remaining activity at 0.1 µM: MM1.S, 16 h, read-out: %remaining protein CRBN
Method: as §1, §2

IKZF3 = test: Immunoblotting (western blot) quantification of IKZF3 levels in MM.1S cells; settings: for %remaining protein IKZF3: 16 h treatment at 0.1 μM, normalized to loading control and DMSO; for IKZF3 degradation (in words): 16 h, 1 μM
Method: as §1, §2

[3] = tested on: IAPs (cIAP1, cIAP2, XIAP); test: Immunoblotting of IAPs in MM.1S cells, overall degradation profile, time course and washout; assay type: cell-based; settings: 16 h, western blot, concentration (10 nM to 1 μM)
Method: Next, we examined the persistence of IAP degradation in MM.1S cells after a single exposure to 1 μM of 9 and subsequent removal of the compound. […] The reliance on CRL2^VHL was assessed with a neddylation inhibitor MLN4924, which blocks the activity of CRLs (Figure S13A).

[4] = read-out: %remaining protein XIAP
[5] = read-out: %remaining protein cIAP1
[6] = 16 h, read-out: %remaining protein cIAP2
[7] = read-out: %remaining protein XIAP, MM.1S cells, 16 h treatment at 0.1 μM, normalized to loading control and DMSO
[8] = read-out: %remaining protein cIAP1, MM.1S cells, 16 h treatment at 0.1 μM, normalized to loading control and DMSO
[9] = 16 h, read-out: %remaining protein cIAP2, MM.1S cells, 16 h treatment at 0.1 μM, normalized to loading control and DMSO
[10] = MM.1S cells, 16 h treatment at 0.1 μM, normalized to loading control and DMSO

Sequence of cIAP1 (Q13490 whole entry): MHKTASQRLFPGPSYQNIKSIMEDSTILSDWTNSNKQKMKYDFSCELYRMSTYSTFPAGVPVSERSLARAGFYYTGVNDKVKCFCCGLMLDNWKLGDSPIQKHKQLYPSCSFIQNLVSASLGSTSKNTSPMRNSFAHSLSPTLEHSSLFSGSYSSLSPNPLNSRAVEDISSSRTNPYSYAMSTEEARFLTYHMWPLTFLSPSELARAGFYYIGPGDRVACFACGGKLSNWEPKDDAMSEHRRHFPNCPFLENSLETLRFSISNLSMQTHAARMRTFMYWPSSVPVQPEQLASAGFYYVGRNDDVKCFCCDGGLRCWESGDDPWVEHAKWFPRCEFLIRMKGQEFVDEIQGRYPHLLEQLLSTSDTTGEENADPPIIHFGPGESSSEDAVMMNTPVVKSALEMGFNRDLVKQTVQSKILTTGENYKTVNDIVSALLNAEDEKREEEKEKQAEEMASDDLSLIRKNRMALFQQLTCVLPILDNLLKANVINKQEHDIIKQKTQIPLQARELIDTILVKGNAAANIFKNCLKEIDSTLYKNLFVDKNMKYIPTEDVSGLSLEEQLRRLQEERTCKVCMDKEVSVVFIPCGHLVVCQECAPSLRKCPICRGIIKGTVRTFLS
T1 sequence (P02768 25-609): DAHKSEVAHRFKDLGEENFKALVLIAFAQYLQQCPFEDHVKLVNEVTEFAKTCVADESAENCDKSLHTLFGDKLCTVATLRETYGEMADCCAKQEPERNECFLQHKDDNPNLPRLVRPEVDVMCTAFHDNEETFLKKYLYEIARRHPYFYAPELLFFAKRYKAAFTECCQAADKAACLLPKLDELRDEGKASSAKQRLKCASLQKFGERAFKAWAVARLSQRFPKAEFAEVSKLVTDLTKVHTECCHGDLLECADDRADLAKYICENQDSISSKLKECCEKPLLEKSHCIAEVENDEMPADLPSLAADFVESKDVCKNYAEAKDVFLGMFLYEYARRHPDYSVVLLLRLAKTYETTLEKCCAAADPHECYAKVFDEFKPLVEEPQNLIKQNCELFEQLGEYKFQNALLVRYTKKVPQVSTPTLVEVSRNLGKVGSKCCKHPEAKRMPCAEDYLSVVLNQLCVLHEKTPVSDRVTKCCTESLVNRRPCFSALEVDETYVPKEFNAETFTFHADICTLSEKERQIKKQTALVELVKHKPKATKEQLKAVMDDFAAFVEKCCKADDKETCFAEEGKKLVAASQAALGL
Sequence of CRBN (Q96SW2 whole entry): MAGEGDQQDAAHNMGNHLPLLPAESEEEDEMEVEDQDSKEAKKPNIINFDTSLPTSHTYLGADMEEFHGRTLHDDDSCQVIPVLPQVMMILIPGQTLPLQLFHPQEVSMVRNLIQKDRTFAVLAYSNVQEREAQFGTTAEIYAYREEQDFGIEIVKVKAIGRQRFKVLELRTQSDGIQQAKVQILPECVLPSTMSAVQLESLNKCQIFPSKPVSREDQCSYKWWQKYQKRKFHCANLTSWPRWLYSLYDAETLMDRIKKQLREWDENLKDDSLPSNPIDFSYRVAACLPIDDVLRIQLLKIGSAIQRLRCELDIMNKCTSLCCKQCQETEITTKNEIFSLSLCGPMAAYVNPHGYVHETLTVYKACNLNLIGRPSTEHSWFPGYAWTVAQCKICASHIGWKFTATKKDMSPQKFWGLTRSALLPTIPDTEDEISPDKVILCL
Sequence of cIAP2 (Q13489 whole entry): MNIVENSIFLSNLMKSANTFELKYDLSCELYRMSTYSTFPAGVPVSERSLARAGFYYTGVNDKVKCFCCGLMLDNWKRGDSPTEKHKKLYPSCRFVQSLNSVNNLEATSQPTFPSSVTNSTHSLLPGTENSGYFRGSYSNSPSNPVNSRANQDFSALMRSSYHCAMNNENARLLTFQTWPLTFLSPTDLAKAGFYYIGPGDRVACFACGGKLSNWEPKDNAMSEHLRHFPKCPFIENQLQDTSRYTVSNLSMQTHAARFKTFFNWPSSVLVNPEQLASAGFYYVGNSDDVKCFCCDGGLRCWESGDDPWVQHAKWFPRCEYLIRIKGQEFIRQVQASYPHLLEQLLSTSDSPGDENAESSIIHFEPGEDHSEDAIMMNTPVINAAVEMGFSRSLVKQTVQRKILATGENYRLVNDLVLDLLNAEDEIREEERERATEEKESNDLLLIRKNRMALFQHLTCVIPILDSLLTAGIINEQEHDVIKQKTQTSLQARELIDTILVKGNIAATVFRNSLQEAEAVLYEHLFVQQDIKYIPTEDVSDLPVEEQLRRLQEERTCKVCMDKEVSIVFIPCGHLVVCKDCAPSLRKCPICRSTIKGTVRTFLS
Sequence of XIAP (P98170 whole entry): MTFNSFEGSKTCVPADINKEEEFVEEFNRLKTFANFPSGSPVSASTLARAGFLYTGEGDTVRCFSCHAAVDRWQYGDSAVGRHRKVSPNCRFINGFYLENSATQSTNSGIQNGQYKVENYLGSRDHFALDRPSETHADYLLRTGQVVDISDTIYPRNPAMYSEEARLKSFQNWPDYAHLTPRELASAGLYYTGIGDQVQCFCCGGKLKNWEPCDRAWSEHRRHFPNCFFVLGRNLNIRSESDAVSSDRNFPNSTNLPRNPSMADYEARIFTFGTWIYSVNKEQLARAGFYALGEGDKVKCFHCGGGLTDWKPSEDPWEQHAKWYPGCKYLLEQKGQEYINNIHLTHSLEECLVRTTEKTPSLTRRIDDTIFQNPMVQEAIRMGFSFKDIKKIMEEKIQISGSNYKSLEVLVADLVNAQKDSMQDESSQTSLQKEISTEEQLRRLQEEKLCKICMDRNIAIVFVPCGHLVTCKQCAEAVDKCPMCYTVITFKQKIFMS
Sequence of VHL30 (P40337 whole entry): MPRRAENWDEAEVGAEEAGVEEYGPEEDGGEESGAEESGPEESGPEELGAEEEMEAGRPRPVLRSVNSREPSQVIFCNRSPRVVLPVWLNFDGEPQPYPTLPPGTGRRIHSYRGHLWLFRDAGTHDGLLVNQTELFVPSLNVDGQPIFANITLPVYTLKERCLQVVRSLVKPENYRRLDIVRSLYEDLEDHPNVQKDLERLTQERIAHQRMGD

Molecule	fraction unbound at 0.5 mg/mL [1]	chromatographic logD [2]	remaining activity at 0.1 µM (XIAP; [7]) [%]	remaining activity at 0.1 µM (CRBN) [%]	remaining activity at 0.1 µM (cIAP1; [8]) [%]	remaining activity at 0.1 µM (cIAP2; [9]) [%]	%remaining protein IKZF3 (IKZF3) [%]	IAP degradation profile (in words) [3]	further results
CN[C@@H](C)C(=O)N[C@H](C(=O)N1C[C@@H](Oc2cccc(OCCCCCCOCCCCCCOCCOc3cc(-c4scnc4C)ccc3CNC(=O)[C@@H]3C[C@@H](O)CN3C(=O)[C@H](C(C)C)N3Cc4ccccc4C3=O)c2)C[C@H]1C(=O)N[C@@H]1CCCc2ccccc21)C1CCCCC1 [PROTAC 17, (2S,4S)-1-((S)-2-Cyclohexyl-2-((S)-2-(methylamino)propanamido)acetyl)-4-(3-((6-((6-(2-(2-(((2S,4R)-4-hydroxy-1-((S)-3-methyl-2-(1-oxoisoindolin-2-yl)butanoyl)pyrrolidine-2-carboxamido)methyl)-5-(4-methylthiazol-5-yl)phenoxy)ethoxy)hexyl)oxy)hexyl)oxy)phenoxy)-N-((R)-1,2,3,4-tetrahydronaphthalen-1-yl)pyrrolidine-2-carboxamide]	0.03	5.2	–	–	–	–	–	–	remaining activity at 0.1 µM (XIAP; [4]): 1%; remaining activity at 0.1 µM (cIAP1; [5]): 3%; remaining activity at 0.1 µM (cIAP2; [6]): 31%; remaining activity at 0.1 µM (VHL30): 81%
CN[C@@H](C)C(=O)N[C@H](C(=O)N1C[C@@H](Oc2cccc(OCCCCOCCCCNc3cccc4c3C(=O)N(C3CCC(=O)NC3=O)C4=O)c2)C[C@H]1C(=O)N[C@@H]1CCCc2ccccc21)C1CCCCC1 (stereo partly drawn) [PROTAC 22, (2S,4S)-1-((S)-2-Cyclohexyl-2-((S)-2-(methylamino)propanamido)acetyl)-4-(3-(4-(4-((2-(2,6-dioxopiperidin-3-yl)-1,3-dioxoisoindolin-4-yl)amino)butoxy)butoxy)phenoxy)-N-((R)-1,2,3,4-tetrahydronaphthalen-1-yl)pyrrolidine-2-carboxamide]	0.04	4.9	2	77	3	7	61	pronounced pan-IAP depletion	IKZF3 degradation (in words) (IKZF3): substantial IKZF3 degradation at 1 μM; IKZF3 degraded (IKZF3; 16 h treatment, 0.1 μM): approximately 40%
CN[C@@H](C)C(=O)N[C@H](C(=O)N1C[C@@H](Oc2cccc(OCCCCCOCCCCCOCCCCCCNc3cccc4c3C(=O)N(C3CCC(=O)NC3=O)C4=O)c2)C[C@H]1C(=O)N[C@@H]1CCCc2ccccc21)C1CCCCC1 (stereo partly drawn) [PROTAC 26, (2S,4S)-1-((S)-2-Cyclohexyl-2-((S)-2-(methylamino)propanamido)acetyl)-4-(3-((5-((5-((6-((2-(2,6-dioxopiperidin-3-yl)-1,3-dioxoisoindolin-4-yl)amino)hexyl)oxy)pentyl)oxy)pentyl)oxy)phenoxy)-N-((R)-1,2,3,4-tetrahydronaphthalen-1-yl)pyrrolidine-2-carboxamide]	–	6.5	–	95	–	–	90	pronounced pan-IAP depletion	remaining activity at 0.1 µM (XIAP; [4]): 2%; remaining activity at 0.1 µM (cIAP1; [5]): 10%; remaining activity at 0.1 µM (cIAP2; [6]): 16%; IKZF3 degradation (in words) (IKZF3): substantial IKZF3 degradation at 1 μM
(2S,4S)-1-((S)-2-Cyclohexyl-2-((S)-2-(methylamino)propanamido)acetyl)-4-(3-((8-((2-(2,6-dioxopiperidin-3-yl)-1,3-dioxoisoindolin-4-yl)amino)octyl)oxy)phenoxy)-N-((R)-1,2,3,4-tetrahydronaphthalen-1-yl)pyrrolidine-2-carboxamide [PROTAC 21]	–	–	–	–	–	–	95	–	logD (experimental partition coefficient, elog D7.4) ([2]; pH 7.4, fast-gradient HPLC method): 5.7; %remaining protein XIAP (XIAP; [10]): 4%; %remaining protein CRBN (CRBN; [10]): 90%; %remaining protein cIAP1 (cIAP1; [10]): 5%; %remaining protein cIAP2 (cIAP2; [10]): 14%

The next lines start with results.

fraction unbound at 0.5 mg/mL [1]	chromatographic logD [2]	remaining activity at 0.1 µM (XIAP; [7]) [%]	remaining activity at 0.1 µM (CRBN) [%]	remaining activity at 0.1 µM (cIAP1; [8]) [%]	remaining activity at 0.1 µM (cIAP2; [9]) [%]	Molecule	%remaining protein IKZF3 (IKZF3) [%]	IAP degradation profile (in words) [3]	further results
0.04	4.6	8	95	6	34	CN[C@@H](C)C(=O)N[C@H](C(=O)N1C[C@@H](Oc2cccc(OCCCCCNc3cccc4c3C(=O)N(C3CCC(=O)NC3=O)C4=O)c2)C[C@H]1C(=O)N[C@@H]1CCCc2ccccc21)C1CCCCC1 (stereo partly drawn) [PROTAC 20, (2S,4S)-1-((S)-2-Cyclohexyl-2-((S)-2-(methylamino)propanamido)acetyl)-4-(3-((5-((2-(2,6-dioxopiperidin-3-yl)-1,3-dioxoisoindolin-4-yl)amino)pentyl)oxy)phenoxy)-N-((R)-1,2,3,4-tetrahydronaphthalen-1-yl)pyrrolidine-2-carboxamide]	89	–	–
0.05	3.9	3	85	4	11	CN[C@@H](C)C(=O)N[C@H](C(=O)N1C[C@@H](Oc2cccc(OCCOCCOCCNc3cccc4c3C(=O)N(C3CCC(=O)NC3=O)C4=O)c2)C[C@H]1C(=O)N[C@@H]1CCCc2ccccc21)C1CCCCC1 (stereo partly drawn) [PROTAC 23, (2S,4S)-1-((S)-2-Cyclohexyl-2-((S)-2-(methylamino)propanamido)acetyl)-4-(3-(2-(2-(2-((2-(2,6-dioxopiperidin-3-yl)-1,3-dioxoisoindolin-4-yl)amino)ethoxy)ethoxy)ethoxy)phenoxy)-N-((R)-1,2,3,4-tetrahydronaphthalen-1-yl)pyrrolidine-2-carboxamide]	95	–	–
0.06	3.9	2	86	4	8	CN[C@@H](C)C(=O)N[C@H](C(=O)N1C[C@@H](Oc2cccc(OCCOCCOCCOCCNc3cccc4c3C(=O)N(C3CCC(=O)NC3=O)C4=O)c2)C[C@H]1C(=O)N[C@@H]1CCCc2ccccc21)C1CCCCC1 (stereo partly drawn) [PROTAC 24, (2S,4S)-1-((S)-2-Cyclohexyl-2-((S)-2-(methylamino)propanamido)acetyl)-4-(3-(2-(2-(2-(2-((2-(2,6-dioxopiperidin-3-yl)-1,3-dioxoisoindolin-4-yl)amino)ethoxy)ethoxy)ethoxy)ethoxy)phenoxy)-N-((R)-1,2,3,4-tetrahydronaphthalen-1-yl)pyrrolidine-2-carboxamide]	95	–	–
0.05	3.4	–	–	–	–	CC[C@H](NC(=O)[C@H](C)NC)C(=O)N1C[C@@H](O)C[C@H]1Cc1c(-c2[nH]c3cc(F)ccc3c2C[C@@H]2C[C@H](O)CN2C(=O)[C@H](CC)NC(=O)[C@H](C)NC)[nH]c2cc(F)ccc12 [birinapant, reference compound]	–	potent cIAP autodegradation	cIAP2 degradation (in words) (cIAP2; MM.1S cells, 16 h, western blot, 0.1 or 1 μM): substantial degradation
